Data reported in patent US11806332B2, “Compositions and methods for inhibition of SARS-CoV-2 viral infections” (priority 2020, dated 2023).
Read-outs that look alike come from different tables or passages of the source.

What was measured:
SARS-CoV-2 [1] = experiment: Live virus-based microneutralization (MN) assay, SARS-CoV-2-induced CPE in Vero E6 cells; format: cell-based; parameters: key to SARS-CoV-2 induced CPE in Vero E6 cells: Cytotoxicity; ND: Both cytotoxicity and CPE are not detected.; SARS-CoV-2 induced CPE; conditions: for SARS-CoV-2 induced CPE in Vero E6 cells: Repeat 1 and 2
[2] = mice, dose as high as 300 mg/kg/day; cited from earlier work
SARS-CoV-2 [3] = format: cell-based; parameters: key: Cytotoxicity; ND: Both cytotoxicity and CPE are not detected.; SARS-CoV-2 induced CPE; conditions: Repeat 1 and 2
[4] = patients, state Cmax; cited from earlier work
M^Pro = M^Pro (Severe acute respiratory syndrome coronavirus 2, UniProt P0DTD1); format: biochemical

SMILES: CC(C)COCC(CN(Cc1ccccc1)c1ccccc1)N1CCCC1 (stereo not drawn) [Bepridil]
- SARS-CoV-2 induced CPE in Vero E6 cells (SARS-CoV-2 [1]; bepridil 0.16 μM): CPE
- SARS-CoV-2 induced CPE in Vero E6 cells (SARS-CoV-2 [1]; bepridil 0.31 μM): CPE
- SARS-CoV-2 induced CPE in Vero E6 cells (SARS-CoV-2 [1]; bepridil 0.62 μM): CPE
- SARS-CoV-2 induced CPE in Vero E6 cells (SARS-CoV-2 [1]; bepridil 1.25 μM): CPE
- SARS-CoV-2 induced CPE in Vero E6 cells (SARS-CoV-2 [1]; bepridil 2.5 μM): CPE
- SARS-CoV-2 induced CPE in Vero E6 cells (SARS-CoV-2 [1]; bepridil 50 μM): C
- SARS-CoV-2 induced CPE in Vero E6 cells (SARS-CoV-2 [1]; bepridil 100 μM): C
- SARS-CoV-2 induced CPE in Vero E6 cells (SARS-CoV-2 [1]; bepridil 200 μM): C^a and C
- mating behavior and reproductive performance [2]: did not show alteration in mating behavior and reproductive performance
- SARS-CoV-2 induced CPE in ACE2-expressing A549 cells (SARS-CoV-2 [3]; bepridil 1.56 μM): CPE
- SARS-CoV-2 induced CPE in ACE2-expressing A549 cells (SARS-CoV-2 [3]; bepridil 3.12 μM): CPE
- Cmax [4]: 3.72 µM

SMILES: CC(C)(C)c1ccc(C(=O)CCCN2CCC(OC(c3ccccc3)c3ccccc3)CC2)cc1 [Ebastine]
- Cytopathogenic effect (CPE) (SARS-CoV-2 [1]): observed

SMILES: Cc1cccc(C)c1OCC(=O)N[C@@H](Cc1ccccc1)[C@@H](O)C[C@H](Cc1ccccc1)NC(=O)[C@H](C(C)C)N1CCCNC1=O [Lopinavir]
- IC50 (M^Pro; 50 nM M^Pro, 10 μM Sub3, mean ± SE, triplicate): 486 ± 2 µM
- Hill Slope (M^Pro; Hill coefficient of IC50 curve, four-parameter fit): 29.9 ± 2.4
- Hill Slope (M^Pro; Hill coefficient of IC50 curve, four-parameter fit, listed as lopinavir): lowest Hill coefficients

SMILES: O=c1[nH]c2ccccc2n1C1CCN(CCCC(c2ccc(F)cc2)c2ccc(F)cc2)CC1 [Pimozide]
- Cytopathogenic effect (CPE) (SARS-CoV-2 [1]; Vero E6 cells, all tested concentrations, 0.16 to 200 μM): observed

SMILES: CCOC(=O)/C=C/[C@H](C[C@@H]1CCNC1=O)NC(=O)[C@@H](CC(=O)[C@@H](NC(=O)c1cc(C)on1)C(C)C)Cc1ccc(F)cc1 [Rupintrivir]
- Hill Slope (M^Pro): 1.4 ± 0.2
